The record followed here is ChEMBL document CHEMBL1201862, “PubChem BioAssay data set” (2004).

Test systems include SF-268; SNB-19; RXF 393; CCRF-CEM; HCT-116; NCI-H460; SK-MEL-2; HCT-15; SK-MEL-5; A549; HOP-62; UACC-257; OVCAR-5; SN12C; K562; LOX IMVI; SF-295; NCI-H23; SK-MEL-28; HCC 2998.
Experiment in all cases: growth of human tumour cells (NCI), 48 h

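Protocol summary: plate cells (96-well), add compound at 5 concentrations, incubate 48 h, interpolate endpoints linearly. Here, GI50 denotes the concentration required for 50% inhibition of growth.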 The source made the active and inactive calls. Rule as the data show it: active = GI50 up to about 1.1 µM and inactive = higher.

In the case of `CCc1ccc(Nc2cc(=O)[nH]c(=S)n2C)cc1`, the GI50 with SF-268, in the test with SNB-19, in the test on RXF 393, in the test on CCRF-CEM, in the test with HCT-116 and in the test on NCI-H460 was > 100 µM (inactive) throughout. The GI50 in the test with SK-MEL-2 is > 100 µM (inactive); in the test on HCT-15, more than 100 µM; in the test on SK-MEL-5, > 100 µM (inactive); with A549, > 100 µM (inactive); with HOP-62 it was > 100 µM (inactive); in the test on UACC-257, > 100 µM (inactive). For the same compound, the GI50 in the test with OVCAR-5, with SN12C, in the test on K562, in the test on LOX IMVI, with SF-295 and in the test with NCI-H23 was > 100 µM (inactive) each time.
Turning to `COc1ccc(N[S+]([O-])c2ccc(-c3ccccc3)cc2)cc1` (configuration not stated), the GI50 in the test with SF-268 was 30.9 µM (inactive); in the test on SK-MEL-28 it was 91.4 µM (inactive); in the test with SNB-19, 41.8 µM (inactive); with RXF 393, > 100 µM (inactive); in the test on CCRF-CEM, > 100 µM (inactive); in the test on HCT-116, > 100 µM (inactive). The GI50 in the test with NCI-H460 is > 100 µM (inactive); in the test on HCT-15 it was more than 100 µM; in the test on SK-MEL-5, > 100 µM (inactive); in the test on A549 it was > 100 µM (inactive); with HOP-62, 52 µM (inactive); in the test on UACC-257, > 100 µM (inactive). For the same compound, the GI50 with OVCAR-5 is > 100 µM (inactive); in the test with SN12C, > 100 µM (inactive); with HCC 2998, > 100 µM (inactive); in the test with K562 it was > 100 µM (inactive); in the test on LOX IMVI, 19.5 µM (inactive); in the test with SF-295, > 100 µM (inactive). In addition, in the test on NCI-H23, the GI50 is 46 µM (inactive).
As for `CC(=O)OC/C=C\Cn1ncc(=O)[nH]c1=O`, the GI50 was 18 µM (inactive) in the test on SF-268; 21.4 µM (inactive) in the test with SK-MEL-28; 33.4 µM (inactive) in the test with SNB-19; 17.8 µM (inactive) in the test on RXF 393; 17.3 µM (inactive) with CCRF-CEM; 23.3 µM (inactive) in the test on NCI-H460. For the same compound, the GI50 in the test with SK-MEL-2 was 18.1 µM (inactive); with HCT-15, 19.2 µM; with SK-MEL-5, 12.6 µM (inactive); in the test with A549 it was 22.9 µM (inactive); in the test on HOP-62, 20.8 µM (inactive); in the test with OVCAR-5, 17.9 µM (inactive). Moreover, the GI50 in the test with SN12C is 22.9 µM (inactive); in the test on HCC 2998, 19 µM (inactive); with K562 it was 23 µM (inactive); in the test with LOX IMVI it was 3.32 µM (inactive); with NCI-H23, 13.6 µM (inactive).
For `N=c1c2c(=S)n(-c3ccccc3)c(=S)n(-c3ccccc3)c2nc(SCCCN2CCN(c3cccc(Cl)c3)CC2)n1-c1ccccc1`, the GI50 in the test with SK-MEL-28 was > 100 µM (inactive); with RXF 393, > 100 µM (inactive); in the test with CCRF-CEM, > 100 µM (inactive); in the test on NCI-H460 it was > 100 µM (inactive); with SK-MEL-2, 62.8 µM (inactive); in the test on HCT-15, 59.2 µM. Also, the GI50 with SK-MEL-5 was 92.7 µM (inactive); in the test on HOP-62 it was 44.7 µM (inactive); in the test on UACC-257, > 100 µM (inactive); with OVCAR-5, 26.4 µM (inactive); in the test on HCC 2998, > 100 µM (inactive); with K562, > 100 µM (inactive). In addition, the GI50 with LOX IMVI is 26.5 µM (inactive); with SF-295 it was 45.4 µM (inactive); in the test with NCI-H23, > 100 µM (inactive).
`COc1ccc(/C(Cl)=C(\C=O)c2ccc(OC)cc2)cc1`: the GI50 with SF-268 was > 100 µM (inactive); in the test on SNB-19 it was > 100 µM (inactive); in the test on RXF 393, > 100 µM (inactive); with CCRF-CEM, 22.2 µM (inactive); in the test on HCT-116, 61.9 µM (inactive); in the test with NCI-H460 it was 31.5 µM (inactive). For the same compound, the GI50 in the test on SK-MEL-2 was > 100 µM (inactive); with HCT-15, 43.7 µM; in the test on SK-MEL-5, > 100 µM (inactive); in the test on A549, 46.9 µM (inactive); in the test on HOP-62 it was > 100 µM (inactive); with UACC-257, 72.4 µM (inactive). Besides, the GI50 with OVCAR-5 was > 100 µM (inactive); in the test on SN12C, > 100 µM (inactive); with HCC 2998, > 100 µM (inactive); in the test with K562, 63 µM (inactive); in the test with LOX IMVI it was 80 µM (inactive); in the test on SF-295 it was 59.8 µM (inactive). Also, the GI50 with NCI-H23 is > 100 µM (inactive).
Turning to `O=CCCn1[nH]c(=O)ccc1=O`, the GI50 in the test on SF-268, with SK-MEL-28, with SNB-19, with RXF 393, in the test on CCRF-CEM and with HCT-116 was > 100 µM (inactive) each time. The GI50 with NCI-H460 is > 100 µM (inactive); in the test with SK-MEL-2 it was > 100 µM (inactive); with HCT-15 it was more than 100 µM; with SK-MEL-5, > 100 µM (inactive); in the test with A549, > 100 µM (inactive); with UACC-257, > 100 µM (inactive). Also, the GI50 in the test on OVCAR-5, in the test with SN12C, in the test with HCC 2998, in the test with K562, in the test with LOX IMVI and with SF-295 was > 100 µM (inactive) in each case. Moreover, in the test with NCI-H23, the GI50 is > 100 µM (inactive).
Regarding `CN1C2CCC1CC(C)(O)C2` (configuration not stated), the GI50 in the test on SF-268, in the test on SK-MEL-28, with SNB-19, with RXF 393, in the test on CCRF-CEM and in the test with HCT-116 was > 100 µM (inactive) each time. For the same compound, the GI50 in the test with NCI-H460 is > 100 µM (inactive); with SK-MEL-2, > 100 µM (inactive); with HCT-15, more than 100 µM; in the test with HOP-62 it was > 100 µM (inactive); with UACC-257, > 100 µM (inactive); in the test with SN12C, > 100 µM (inactive). The GI50 with HCC 2998, in the test on K562, with LOX IMVI, in the test with SF-295 and in the test with NCI-H23 was > 100 µM (inactive) throughout.
Consider `O=C(c1ccco1)C1CC(c2c(O)ccc3ccccc23)=NN1` (configuration not stated), for which the GI50 is 10.1 µM (inactive) in the test with SF-268; 21 µM (inactive) with SK-MEL-28; 16.4 µM (inactive) in the test with SNB-19; 17.4 µM (inactive) in the test with RXF 393; 9.71 µM (inactive) in the test on CCRF-CEM; 7.85 µM (inactive) with NCI-H460. Further, the GI50 was 16.6 µM (inactive) in the test on SK-MEL-2; 19 µM with HCT-15; 13.9 µM (inactive) with SK-MEL-5; 13.8 µM (inactive) in the test with HOP-62; 20.6 µM (inactive) in the test with UACC-257; 14.9 µM (inactive) in the test with OVCAR-5. Further, the GI50 was 20.1 µM (inactive) in the test on SN12C; 12.1 µM (inactive) with HCC 2998; 12.4 µM (inactive) in the test on K562; 11.2 µM (inactive) with SF-295; 17.1 µM (inactive) in the test with NCI-H23.
`CNc1ccccc1-c1nc2ccccc2c(=O)o1`: the GI50 in the test on SF-268 is 32 µM (inactive); in the test on SK-MEL-28 it was > 100 µM (inactive); with SNB-19 it was > 100 µM (inactive); in the test on CCRF-CEM it was > 100 µM (inactive); in the test on HCT-116, > 100 µM (inactive); with NCI-H460 it was > 100 µM (inactive). Moreover, the GI50 is > 100 µM (inactive) in the test with SK-MEL-2; more than 100 µM in the test with HCT-15; > 100 µM (inactive) with SK-MEL-5; > 100 µM (inactive) in the test with A549; > 100 µM (inactive) with UACC-257; > 100 µM (inactive) with OVCAR-5. The GI50 in the test on SN12C is > 100 µM (inactive); in the test with HCC 2998, > 100 µM (inactive); in the test with K562 it was > 100 µM (inactive); in the test on LOX IMVI it was > 100 µM (inactive); in the test with SF-295, 41.2 µM (inactive).
On to `CN(N)c1nc(N)c(C#N)c(C#N)c1C#N`, for which the GI50 with SF-268 was > 10 µM (inactive); in the test with SK-MEL-28 it was > 10 µM (inactive); with SNB-19 it was > 10 µM (inactive); in the test on CCRF-CEM it was > 10 µM (inactive); with HCT-116 it was > 10 µM (inactive); in the test on HCT-15, more than 10 µM. The GI50 in the test on SK-MEL-5, with A549, with HOP-62, in the test on UACC-257, in the test on OVCAR-5 and in the test with SN12C was > 10 µM (inactive) in each case. The GI50 with HCC 2998, with K562, in the test on LOX IMVI, in the test with SF-295 and in the test on NCI-H23 was > 10 µM (inactive) in each case.
Regarding `COC(=O)c1ccc(/C=C2\N=C(C)OC2=O)cc1`, the GI50 in the test with SF-268, in the test with SK-MEL-28, in the test on SNB-19, in the test with CCRF-CEM, in the test with HCT-116 and with NCI-H460 was > 100 µM (inactive) throughout. In addition, the GI50 in the test on HCT-15 was more than 100 µM; with SK-MEL-5 it was > 100 µM (inactive); in the test on A549, > 100 µM (inactive); in the test with HOP-62 it was > 100 µM (inactive); in the test with OVCAR-5, > 100 µM (inactive); in the test with SN12C, > 100 µM (inactive). The GI50 with HCC 2998, in the test with K562, with LOX IMVI, in the test with SF-295 and in the test with NCI-H23 was > 100 µM (inactive) throughout.
